This note sets out measurements from patent US10363253B2, “Combination products for the treatment of RSV” (priority 2016, dated 2019).

For this assay, the system named is rgRSV224, an engineered RSV strain that encodes for eGFP. It counts as cell-based. The protocol:
To evaluate their combined antiviral effect against RSV, in vitro combination studies were performed with JNJ-53718678 (“compound A”) and various compounds with different mechanisms-of-action (“compound B”). In short, 9 concentrations of Compound A were combined with 6 or 7 concentrations of a certain compound B. HeLa cells were infected with rgRSV224, an engineered RSV strain that encodes for eGFP (Hallak L K, Spillmann D, Collins P L, Peeples M E. Glycosaminoglycan sulfation requirements for respiratory syncytial virus infection; Journal of Virology (2000), 74(22), 10508-13), in the presence of various concentrations of compound A and compound B individually or in combination.
Compound stock solutions were 5 mM in 100% DMSO, with following exceptions: ribavirin, 20 mM; A 60444, 10 mM; CR9501, 141 μM in PBS; palivizumab, 156 μM in PBS; MDT 637, 100 μM in methanol. First, the compounds were serially diluted in 3-fold dilution series in DMSO; CR9501 and palivizumab were serially diluted in cell culture medium, and MDT 637 in methanol. The concentration series were diluted 100-fold in cell culture medium to achieve a combination matrix. 10 μL of these compound solutions were transferred to black 384-well clear-bottom tissue-culture treated plates. Next, 10 μL of a […] HeLa cell suspension was added to achieve 3000 cells per well. Finally, 10 μL of diluted virus stock was added to achieve an MOI of 1. The final DMSO concentration of all wells was 0.5% DMSO, except for the MDT 637 experiment where it was 0.25% DMSO+0.25% methanol. Each combination of compound concentrations was tested in 4 replicates on 3 separate plates, resulting in a total of 12 replicates. The plates were incubated for 3 days at 37° C. in a humidified atmosphere at 5% CO2. The GFP signal was measured with PerkinElmer EnVision apparatus using a 405 nm filter.
The method of Harbron (Statistics in Medicine, 2010, DOI:10.1002/sim3916) was used to assess synergy. Using the Loewe definition, two compounds are characterized as being additive, synergistic or antagonistic by:
where d1 and d2 represent the doses of the two compounds that in combination produce an effect y, and Dy,1 and Dy,2 represent the doses of the two compounds that produce the same effect, y, when administered as a monotherapy. A 3PL model (3-parameter log-logistic model) was used for the monotherapy dose-response data, where the baseline response was fixed at one.
Following Harbron's approach, the following models were fitted to the data: • “Additive”: assuming no interaction between the two compounds • “Uniform”: assuming a constant interaction index τ across all dose combinations • “Linear A”: assuming the interaction index linearly depends on the log 10 dose of compound A: z=τ1+τ2 log 10(dA) • “Separate A”: assuming the interaction index τ takes a separate value for each dose of compound A The latter two models were also considered for compound B: • “Linear B”: assuming the interaction index linearly τ depends on the log 10 dose of compound B: τ=τ1+τ2 log 10(dB) • “Separate B”: assuming the interaction index τ takes a separate value for each dose of compound B

Molecules are shown by their SMILES. Where two headings read alike, the source gives them in different places.

As to `Cc1cnc(N2CC3(CCOCC3)C2)c(C(=O)Nc2ccc(C(=O)N3CCc4cc(C(=O)Nc5c(C)cccc5F)sc4-c4ccccc43)cc2)c1` [pulmocide compound, N-(2-fluoro-6-methylphenyl)-6-(4-(5-methyl-2-(7-oxa-2-azaspiro[3.5]nonan-2-yl)nicotinamido)benzoyl)-5,6-dihydro-4H-benzo[b]thieno[2,3-d]azepine-2-carboxamide, reference compound], the “normalized GFP signal” value came to 1.04. In addition, the “normalized GFP signal” value (A = 0, B (pulmocide compound) = 0.058) was found to be 0.99. The “normalized GFP signal” value (A = 0, B (pulmocide compound) = 0.17) was 0.99. Also, under “A = 0, B (pulmocide compound) = 1.6”, the “normalized GFP signal” value is 0.91. The “normalized GFP signal” value (A = 0, B (pulmocide compound) = 4.7) came out at 0.20. Moreover, the “normalized GFP signal” value (A = 0, B (pulmocide compound) = 14) was found to be 0.02. In addition, the “normalized GFP signal” value (A = 0, B (pulmocide compound) = 42) came to 0.02.

For the compound `O=C(NC1CC1)c1cc2c(s1)-c1ccccc1N(C(=O)c1ccc(NC(=O)c3cccnc3N3CCC4(CC3)COC4)cc1)CC2` [AZ-27, N-cyclopropyl-5,6-dihydro-6-[4-[[[2-(2-oxa-7-azaspiro [3.5]non-7-yl)-3-pyridinyl]carbonyl]-amino]benzoyl]-4H-thieno [3,2-d][1]benzazepine-2-carboxamide, reference compound], the “normalized GFP signal” value (A = 0, B (AZ-27) = 17) amounted to 1.03; the “normalized GFP signal” value (A = 0, B (AZ-27) = 51) stood at 1.00; the “normalized GFP signal” value (A = 0, B (AZ-27) = 154) was determined as 0.53; the “normalized GFP signal” value (A = 0, B (AZ-27) = 463) came to 0.07; the “normalized GFP signal” value (A = 0, B (AZ-27) = 1389) is 0.01; the “normalized GFP signal” value (A = 0, B (AZ-27) = 4167) was determined as 0.00.
